Results as given in patent publication US20240209028A1, “CNP COMPOUNDS” (priority 2022, published 2024).
Starred links: 1 amine or outer side, 2 acyl side, 3 side chain; linkers in the order of their positions; H or OH if unused. Positions of bridges follow the written chain, without caps; N, C: chain ends. Residues, ends and D or L forms follow the SMILES beside them. *: point of attachment. C18 diacid = O=C(O)CCCCCCCCCCCCCCCCC(=O)*; γGlu = O=C(O)[C@H](CCC(=O)[*:2])N[*:1]; X1 = O=C(CCCCCCCCCCCCCCCCc1nnn[nH]1)*; AEEA = NCCOCCOCC(=O)O

Key:
[1] = High-Molecular-Weight-Protein (HMWP) formation by SEC-UPLC; assay type: physicochemical; details: increase over two weeks at 37° C., pH 6.5
Method: In order to assess the propensity of CNP compounds to form covalent dimers or oligomers when formulated the High-Molecular-Weight-Protein content of CNP compound formulations at pH 4.0 and 6.5 were determined.
Procedure: The relative amount of covalent HMWP was assessed using SEC-UPLC. SEC-UPLC was conducted using a Waters UPLC Protein BEH SEC column, 125A, 4.6×150 mm, 1.7 μm, with isocratic elution (0.3 M NaCl, 10 mM NaH2PO4 and 5 mM H3PO4, 50% (v/v) isopropanol, pH 2.4) with a flow rate of 0.3 mL/min, a column temperature at 50° C. with UV-detection at 215 nm. The total area of peaks eluting prior to the monomeric main peak was termed HMWP and given on a percentage scale relative to the total peptide peak area.
(§1) Results: HMWP Formation Following 2-Weeks Quiescent Incubation at 37° C.: Samples at pH 4.0 were prepared as described in Example 5 and the amount of HMWP was determined as described above. Samples were incubated for two weeks at 37° C. and the amount of HMWP was determined again. The increase in HMWP over two weeks incubation at 37° C. are reported in Table 10 (in case the incubation period deviated from two weeks the increase in HMWP was normalized to two weeks assuming a constant formation rate).
as §1, with “Samples” for “Results: HMWP Formation Following 2-Weeks Quiescent Incubation at 37° C.: Samples”, “6.5” for “4.0”, “11” for “10”

[2] = PK of CNP compounds after i.v. and s.c. administration to rats; details: male, Sprague Dawley, in vivo, iv, rat, i.v., about 100 nmol/kg
Method in brief: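 Plasma exposure was quantified by protein precipitation and turboflow LC-MS/MS in SRM mode. Rats received either 100 nmol/kg intravenously or 300 nmol/kg subcutaneously, with sublingual blood taken at baseline and at points up to 72 h. Per-animal NCA gave clearance as Dose/AUCinf, and results are averaged over 4-6 animals.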

| SMILES | 2-Week HMWP formation at pH 6.5 (%), % relative to total peak area [1] [%] | clearance ([2]; read-out: Cl (L/hr/kg), i.v. administration (converted)) [L/h/kg] | half-life ([2]; read-out: T½ (hr), i.v. administration (converted)) [h] |
| --- | --- | --- | --- |
| CC[C@H](C)[C@@H]1NC(=O)[C@H](CCCNC(=N)N)NC(=O)[C@H](CC(=O)O)NC(=O)[C@H](CC(C)C)NC(=O)[C@@H]2CCCN2C(=O)[C@H](CC(C)C)NC(=O)CNC(=O)[C@H](Cc2ccccc2)NC(=O)[C@@H](NC(=O)CNC(=O)[C@H](CO)NC(=O)[C@H](CO)NC(=O)[C@H](CC(C)C)NC(=O)CNC(=O)[C@@H](NC(=O)[C@H](Cc2c[nH]cn2)NC(=O)[C@H](CCC(N)=O)NC(=O)[C@H](C)NC(=O)CNC(=O)[C@H](Cc2c[nH]cn2)NC(=O)[C@H](Cc2ccc(O)cc2)NC(=O)COCCOCCNC(=O)COCCOCCNC(=O)CC[C@H](NC(=O)CCCCCCCCCCCCCCCCC(=O)O)C(=O)O)[C@@H](C)O)CSSC[C@@H](C(=O)O)NC(=O)CNC(=O)[C@H](CC(C)C)NC(=O)CNC(=O)[C@H](CO)NC(=O)[C@H](CC(C)C)NC(=O)[C@H](CO)NC(=O)CNC1=O [compound 1304] ({C18 diacid-γGlu-AEEA-AEEA}-YHGAQHTGLSSGCFGLPLDRIGSLSGLGC-OH; disulfide 13-29) | 1.55 |  |  |
| CC[C@H](C)[C@@H]1NC(=O)[C@H](CCCNC(=N)N)NC(=O)[C@H](CC(=O)O)NC(=O)[C@H](CC(C)C)NC(=O)[C@@H]2CCCN2C(=O)[C@H](CC(C)C)NC(=O)CNC(=O)[C@H](Cc2ccccc2)NC(=O)[C@@H](NC(=O)CNC(=O)[C@H](CO)NC(=O)[C@H](CO)NC(=O)[C@H](CC(C)C)NC(=O)CNC(=O)[C@H](CCCCN)NC(=O)[C@H](CCCCN)NC(=O)[C@H](CCC(N)=O)NC(=O)[C@H](C)NC(=O)CNC(=O)[C@H](Cc2c[nH]cn2)NC(=O)[C@H](CCC(=O)O)NC(=O)COCCOCCNC(=O)COCCOCCNC(=O)CC[C@H](NC(=O)CCCCCCCCCCCCCCCCC(=O)O)C(=O)O)CSSC[C@@H](C(=O)O)NC(=O)CNC(=O)[C@H](CC(C)C)NC(=O)CNC(=O)[C@H](CO)NC(=O)[C@H](CC(C)C)NC(=O)[C@H](CO)NC(=O)CNC1=O [compound 1310] ({C18 diacid-γGlu-AEEA-AEEA}-EHGAQKKGLSSGCFGLPLDRIGSLSGLGC-OH; disulfide 13-29) | 0.87 |  |  |
| CC[C@H](C)[C@@H]1NC(=O)[C@H](CCCNC(=N)N)NC(=O)[C@H](CC(=O)O)NC(=O)[C@H](CC(C)C)NC(=O)[C@@H]2CCCN2C(=O)[C@H](CC(C)C)NC(=O)CNC(=O)[C@H](Cc2ccccc2)NC(=O)[C@@H](NC(=O)CNC(=O)[C@H](CCC(N)=O)NC(=O)[C@H](CO)NC(=O)[C@H](CC(C)C)NC(=O)CNC(=O)[C@H](CCCCN)NC(=O)[C@H](CCCCN)NC(=O)[C@H](CCC(N)=O)NC(=O)[C@H](C)NC(=O)CNC(=O)[C@H](CCCCN)NC(=O)[C@H](Cc2ccc(O)cc2)NC(=O)[C@H](CCCCN)NC(=O)[C@H](Cc2c[nH]cn2)NC(=O)[C@H](C)NC(=O)[C@H](CCC(N)=O)NC(=O)[C@@H]2CCCN2C(=O)[C@H](Cc2c[nH]cn2)NC(=O)[C@H](CCC(=O)O)NC(=O)[C@H](CCC(N)=O)NC(=O)COCCOCCNC(=O)COCCOCCNC(=O)CC[C@H](NC(=O)CC[C@H](NC(=O)CC[C@H](NC(=O)CCCCCCCCCCCCCCCCC(=O)O)C(=O)O)C(=O)O)C(=O)O)CSSC[C@@H](C(=O)O)NC(=O)CNC(=O)[C@H](CC(C)C)NC(=O)CNC(=O)[C@H](CO)NC(=O)[C@H](CC(C)C)NC(=O)[C@H](CO)NC(=O)CNC1=O [compound 1382] ({C18 diacid-γGlu-γGlu-γGlu-AEEA-AEEA}-QEHPQAHKYKGAQKKGLSQGCFGLPLDRIGSLSGLGC-OH; disulfide 21-37) | 0 |  |  |
| CC[C@H](C)[C@@H]1NC(=O)[C@H](CCCNC(=N)N)NC(=O)[C@H](CC(=O)O)NC(=O)[C@H](CC(C)C)NC(=O)[C@@H]2CCCN2C(=O)[C@H](CC(C)C)NC(=O)CNC(=O)[C@H](Cc2ccccc2)NC(=O)[C@@H](NC(=O)CNC(=O)[C@H](CCC(N)=O)NC(=O)[C@H](CO)NC(=O)[C@H](CC(C)C)NC(=O)CNC(=O)[C@H](CCCCN)NC(=O)[C@H](CCCCN)NC(=O)[C@H](CCC(N)=O)NC(=O)[C@H](C)NC(=O)CNC(=O)[C@H](CCCCN)NC(=O)[C@H](Cc2ccc(O)cc2)NC(=O)[C@H](CCCCN)NC(=O)[C@H](CCCNC(=N)N)NC(=O)[C@H](C)NC(=O)[C@H](CCC(N)=O)NC(=O)[C@@H]2CCCN2C(=O)[C@H](Cc2c[nH]cn2)NC(=O)[C@H](CCC(=O)O)NC(=O)[C@H](CCC(N)=O)NC(=O)COCCOCCNC(=O)COCCOCCNC(=O)CC[C@H](NC(=O)CC[C@H](NC(=O)CC[C@H](NC(=O)CC[C@H](NC(=O)CC[C@H](NC(=O)CC[C@H](NC(=O)CCCCCCCCCCCCCCCCC(=O)O)C(=O)O)C(=O)O)C(=O)O)C(=O)O)C(=O)O)C(=O)O)CSSC[C@@H](C(=O)O)NC(=O)CNC(=O)[C@H](CC(C)C)NC(=O)CNC(=O)[C@H](CO)NC(=O)[C@H](CC(C)C)NC(=O)[C@H](CO)NC(=O)CNC1=O [compound 1402] ({C18 diacid-γGlu-γGlu-γGlu-γGlu-γGlu-γGlu-AEEA-AEEA}-QEHPQARKYKGAQKKGLSQGCFGLPLDRIGSLSGLGC-OH; disulfide 21-37) | 2.19 |  |  |
| CC[C@H](C)[C@@H]1NC(=O)[C@H](CCCNC(=N)N)NC(=O)[C@H](CC(=O)O)NC(=O)[C@H](CC(C)C)NC(=O)[C@@H]2CCCN2C(=O)[C@H](CC(C)C)NC(=O)CNC(=O)[C@H](Cc2ccccc2)NC(=O)[C@@H](NC(=O)CNC(=O)[C@H](CCC(N)=O)NC(=O)[C@H](CO)NC(=O)[C@H](CC(C)C)NC(=O)CNC(=O)[C@H](CCCCN)NC(=O)[C@H](CCCCN)NC(=O)[C@H](CCC(N)=O)NC(=O)[C@H](C)NC(=O)CNC(=O)[C@H](CCCCN)NC(=O)[C@H](Cc2ccc(O)cc2)NC(=O)[C@H](CCCCN)NC(=O)[C@H](CCCNC(=N)N)NC(=O)[C@H](C)NC(=O)[C@H](CCC(N)=O)NC(=O)[C@@H]2CCCN2C(=O)[C@H](Cc2c[nH]cn2)NC(=O)[C@H](CCC(=O)O)NC(=O)[C@H](CCC(N)=O)NC(=O)COCCOCCNC(=O)COCCOCCNC(=O)COCCOCCNC(=O)COCCOCCNC(=O)CC[C@H](NC(=O)CC[C@H](NC(=O)CC[C@H](NC(=O)CC[C@H](NC(=O)CC[C@H](NC(=O)CC[C@H](NC(=O)CCCCCCCCCCCCCCCCC(=O)O)C(=O)O)C(=O)O)C(=O)O)C(=O)O)C(=O)O)C(=O)O)CSSC[C@@H](C(=O)O)NC(=O)CNC(=O)[C@H](CC(C)C)NC(=O)CNC(=O)[C@H](CO)NC(=O)[C@H](CC(C)C)NC(=O)[C@H](CO)NC(=O)CNC1=O [compound 1404] ({C18 diacid-γGlu-γGlu-γGlu-γGlu-γGlu-γGlu-AEEA-AEEA-AEEA-AEEA}-QEHPQARKYKGAQKKGLSQGCFGLPLDRIGSLSGLGC-OH; disulfide 21-37) | 1.8 |  |  |
| CC[C@H](C)[C@@H]1NC(=O)[C@H](CCCNC(=N)N)NC(=O)[C@H](CC(=O)O)NC(=O)[C@H](CC(C)C)NC(=O)[C@@H]2CCCN2C(=O)[C@H](CC(C)C)NC(=O)CNC(=O)[C@H](Cc2ccccc2)NC(=O)[C@@H](NC(=O)CNC(=O)[C@H](CCC(N)=O)NC(=O)[C@H](CO)NC(=O)[C@H](CC(C)C)NC(=O)CNC(=O)[C@H](CO)NC(=O)[C@H](CCCCN)NC(=O)[C@H](CCC(N)=O)NC(=O)[C@H](C)NC(=O)CNC(=O)[C@H](Cc2c[nH]cn2)NC(=O)[C@H](Cc2ccc(O)cc2)NC(=O)[C@H](CCCCN)NC(=O)[C@H](CCCNC(=N)N)NC(=O)[C@H](C)NC(=O)COCCOCCNC(=O)COCCOCCNC(=O)CC[C@H](NC(=O)CC[C@H](NC(=O)CCCCCCCCCCCCCCCCc2nnn[nH]2)C(=O)O)C(=O)O)CSSC[C@@H](C(=O)O)NC(=O)CNC(=O)[C@H](CC(C)C)NC(=O)CNC(=O)[C@H](CO)NC(=O)[C@H](CC(C)C)NC(=O)[C@H](CO)NC(=O)CNC1=O [compound 1426] ({X1-γGlu-γGlu-AEEA-AEEA}-ARKYHGAQKSGLSQGCFGLPLDRIGSLSGLGC-OH; disulfide 16-32) |  | 0.00348 | 9.96 |
